The source of these data is publication PMC7148433 (Biochemical Journal, 2020).

Structures are written as SMILES.

In this assay the target is T1, lipocalin-type prostaglandin D synthase (L-PGDS) (Homo sapiens, UniProt P41222).
T1 sequence (P41222 23-190): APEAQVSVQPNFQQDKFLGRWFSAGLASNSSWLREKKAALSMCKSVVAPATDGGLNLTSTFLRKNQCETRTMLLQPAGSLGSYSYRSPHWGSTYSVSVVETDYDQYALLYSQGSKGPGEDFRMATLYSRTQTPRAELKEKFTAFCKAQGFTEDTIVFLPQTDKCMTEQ
The experiment in a line: tryptophan fluorescence quenching. Format: binding.

Consider `C=CC1=C(C)C2=Cc3c(C=C)c(C)c4[n]3[Fe][n]3c(c(C)c(CCC(=O)O)c3=CC3=NC(=C4)C(C)=C3CCC(=O)O)=CC1=N2` [heme], for which the Kd came to 40 nM.

What is called Kd is the free concentration of one partner at which half of the binding sites on the other are occupied at equilibrium, for simple one-to-one binding.
